Assays:
rat [1] = settings: Combined chronic toxicity/carcinogenicity, sprague dawley, Oral, Feed, dose end: 28 month
rat [2] = settings: Prenatal developmental toxicity study, sprague dawley, Oral, Gavage/Intubation, dose end: 15 GD
dog = settings: Chronic toxicity, beagle, Oral, Feed, dose end: 52 week
rat [3] = settings: Subchronic oral toxicity in rodents, sprague dawley, Feed, dose end: 90 day, group: cholinesterase, cholinesterase / cholinesterase / cholinesterase / brain cholinesterase (che)
mouse [4] = settings: Developmental neurotoxicity study, other, Oral, Gavage/Intubation, dose end: 21 PND, group: cannot be grouped
rat [5] = settings: Subchronic oral toxicity in rodents, fischer, Feed, dose end: 13 week, group: systemic
mouse [6] = settings: Subchronic oral toxicity in rodents, b6c3f1, Feed, dose end: 13 week, group: systemic
rat [7] = settings: Developmental neurotoxicity study; sprague dawley; Oral; Gavage/Intubation; dose end: 57 PND; group: cannot be grouped; reproductive / offspring survival early / birth index / birth index + systemic / in life observation / body weight / body weight + …
rat [8] = settings: Subchronic oral toxicity in rodents, fischer, Feed, dose end: 13 week, group: systemic; remark: listed apart in the source
mouse [9] = settings: Subchronic oral toxicity in rodents, b6c3f1, Feed, dose end: 13 week, group: systemic, systemic / in life observation / body weight / body weight + systemic / in life observation / body weight / body weight gain
rat [10] = settings: Subchronic oral toxicity in rodents, fischer, Feed, dose end: 13 week, group: systemic, systemic / clinical chemistry / cholesterol / cholesterol + systemic / clinical chemistry / protein / protein + systemic / clinical …
rat [11] = settings: Combined chronic toxicity/carcinogenicity, fischer, Oral, Feed, dose end: 2 year, group: systemic
rat [12] = settings: Developmental neurotoxicity study, sprague dawley, Oral, Gavage/Intubation, dose end: 70 PND, group: cannot be grouped
rat [13] = settings: Developmental neurotoxicity study; sprague dawley; Oral; Gavage/Intubation; dose end: 112 PND; group: cannot be grouped; systemic / organ weight / brain / absolute
rat [14] = settings: Developmental neurotoxicity study, sprague dawley, Oral, Gavage/Intubation, dose end: 90 PND, group: cannot be grouped
mouse [15] = settings: Subchronic oral toxicity in rodents, b6c3f1, Feed, dose end: 13 week, group: systemic, systemic / pathology microscopic / liver / degeneration + systemic / pathology microscopic / liver / hyalinization
mouse [16] = settings: Multigenerational reproductive toxicity study, cd1, Oral, Water, dose end: 2 generation
rabbit = settings: Prenatal developmental toxicity study; new zealand white; Oral; Gavage/Intubation; dose end: 19 GD; group: maternal; reproductive / reproductive performance / pregnancy / pregnancy + reproductive / reproductive performance / premature delivery / premature …
rat [17] = settings: Prenatal developmental toxicity study, sprague dawley, Oral, Gavage/Intubation, dose end: 20 GD
mouse [18] = settings: Multigenerational reproductive toxicity study, cd1, Oral, Water, dose end: 2 generation; remark: listed apart in the source
mouse [19] = settings: Combined chronic toxicity/carcinogenicity, b6c3f1, Oral, Feed, dose end: 2 year, group: systemic
rat [20] = settings: Subchronic oral toxicity in rodents, fischer, Feed, dose end: 13 week, group: systemic; remark: listed apart in the source
rat [21] = settings: Prenatal developmental toxicity study, sprague dawley, Oral, Gavage/Intubation, dose end: 15 GD; remark: listed apart in the source
[22] = group: cholinesterase, cholinesterase / cholinesterase / cholinesterase / brain cholinesterase (che) + cholinesterase / cholinesterase / cholinesterase / …
[23] = group: systemic, systemic / pathology microscopic / adrenal gland / pheochromocytoma benign + systemic / in life observation / clinical signs / aggressive …
[24] = group: developmental, developmental / developmental malformation / bone / ossification sites
[25] = group: maternal, systemic / in life observation / body weight / body weight + systemic / in life observation / body weight / body weight gain + systemic / in…
[26] = group: cholinesterase, cholinesterase / cholinesterase / cholinesterase / brain cholinesterase (che)
[27] = group: systemic, systemic / hematology / erythrocyte (rbc) count differential / erythrocyte (rbc) + systemic / hematology / hematocrit (hct) / hematocrit (…
[28] = developmental / offspring survival late / [other] / [other] + systemic / in life observation / clinical signs / ataxia + systemic / in life …
[29] = systemic / in life observation / clinical signs / head tilt
[30] = systemic / in life observation / body weight / body weight + systemic / in life observation / body weight / body weight gain
[31] = systemic / in life observation / body weight / body weight + systemic / in life observation / body weight / body weight gain + systemic / …
[32] = systemic / in life observation / body weight / body weight + systemic / in life observation / body weight / body weight gain + systemic / in…
[33] = systemic / in life observation / body weight / body weight
[34] = systemic / in life observation / body weight / body weight + systemic / organ weight / liver / absolute
[35] = systemic / in life observation / body weight / body weight + systemic / in life observation / body weight / body weight gain + developmental…
[36] = systemic / in life observation / body weight / body weight + developmental / offspring survival late / [other] / [other] + systemic / in …
[37] = group: offspring, developmental / developmental malformation / eye / absent + developmental / developmental malformation / mouth / jaw / cleft lip + …
[38] = group: offspring, systemic / in life observation / body weight / offspring (pup) weight
[39] = group: parental, systemic / in life observation / water consumption / water consumption + systemic / organ weight / liver / absolute + systemic / in life …
[40] = group: parental, systemic / pathology gross / sperm measure / sperm count
[41] = group: reproductive, reproductive / offspring survival early / live fetuses / live fetuses
[42] = group: reproductive, reproductive / reproductive performance / fertility / fertility + reproductive / offspring survival early / live fetuses / live fetuses
[43] = group: developmental, developmental / developmental malformation / bone / absent + developmental / developmental malformation / bone / double-tipped + …
[44] = group: maternal, reproductive / reproductive performance / gestational length / gestational length + systemic / pathology microscopic / kidney / dilatation…
[45] = group: offspring, developmental / developmental malformation / bone / absent + developmental / developmental malformation / bone / fused + developmental / …
[46] = group: parental, systemic / in life observation / mortality / mortality
[47] = group: reproductive, reproductive / reproductive performance / fertility / fertility + reproductive / offspring survival early / litter size / litter size
[48] = systemic / pathology microscopic / liver / degeneration
[49] = systemic / pathology microscopic / liver / degeneration + systemic / pathology microscopic / lung / hyperplasia + systemic / pathology …
[50] = systemic / clinical chemistry / creatinine / creatinine + systemic / clinical chemistry / urea nitrogen / urea nitrogen + systemic / in life…
[51] = systemic / clinical chemistry / urea nitrogen / urea nitrogen
[52] = group: developmental, developmental / developmental malformation / bone / absent + developmental / developmental malformation / bone / delayed ossification + …
[53] = group: maternal, systemic / in life observation / body weight / body weight + systemic / in life observation / body weight / body weight gain + reproductive…

## COP(=O)(NC(C)=O)SC (stereo not drawn) [Acephate]
Rat [1]; [22]
  LEL: 0.25 mg/kg/day
  LOAEL: 35 mg/kg/day
  NEL: < 0.25 mg/kg/day
  NOAEL: 2.5 mg/kg/day
Rat [1]; [23]
  LEL: 0.25 mg/kg/day
  LOAEL: > 35 mg/kg/day
  NEL: < 0.25 mg/kg/day
  NOAEL: ≥ 35 mg/kg/day
Rat [2]; [24]
  LEL: 75 mg/kg/day
  LOAEL: 75 mg/kg/day
  NEL: 20 mg/kg/day
  NOAEL: 20 mg/kg/day
Rat [2]; [25]
  LEL: 20 mg/kg/day
  LOAEL: 20 mg/kg/day
  NEL: 5 mg/kg/day
  NOAEL: 5 mg/kg/day
dog; [26]
  LEL: 0.27 mg/kg/day
  LOAEL: 0.27 mg/kg/day
  NEL: < 0.27 mg/kg/day
  NOAEL: < 0.27 mg/kg/day
dog; [27]
  LEL: 20.2 mg/kg/day
  LOAEL: 20.2 mg/kg/day
  NEL: 3.11 mg/kg/day
  NOAEL: 3.11 mg/kg/day
Rat [3]
  LEL: 0.12 mg/kg/day
  LOAEL: 0.12 mg/kg/day
  NEL: < 0.12 mg/kg/day
  NOAEL: < 0.12 mg/kg/day

## O=C1NC(=O)C(c2ccccc2)(c2ccccc2)N1 [5,5-Diphenylhydantoin]
Mouse [4]; [28]
  LOAEL: > 35 mg/kg/day
  NOAEL: ≥ 35 mg/kg/day
Mouse [4]; [29]
  LEL: 10 mg/kg/day
  NEL: < 10 mg/kg/day
Rat [5]; [30]
  LEL: 122 mg/kg/day
Rat [5]; [31]
  LOAEL: 234 mg/kg/day
  NEL: 60.7 mg/kg/day
  NOAEL: 122 mg/kg/day
Mouse [6]; [30]
  LEL: 11.2 mg/kg/day
  NEL: < 11.2 mg/kg/day
Mouse [6]; [31]
  LOAEL: 90 mg/kg/day
Mouse [6]; systemic / pathology microscopic / liver / hypertrophy + systemic / in life observation / mortality / mortality
  NOAEL: 45 mg/kg/day
Rat [7]
  LEL: 200 mg/kg/day
  LOAEL: > 200 mg/kg/day
  NEL: < 200 mg/kg/day
  NOAEL: ≥ 200 mg/kg/day
Rat [8]; [30]
  LEL: 122 mg/kg/day
  LOAEL: 122 mg/kg/day
Rat [8]; [32]
  NEL: 60.7 mg/kg/day
  NOAEL: 60.7 mg/kg/day
Mouse [9]
  LEL: 20.5 mg/kg/day
  LOAEL: 20.5 mg/kg/day
  NEL: < 20.5 mg/kg/day
  NOAEL: < 20.5 mg/kg/day
Rat [10]
  LEL: 50 mg/kg/day
  LOAEL: > 100 mg/kg/day
  NEL: 25 mg/kg/day
  NOAEL: ≥ 100 mg/kg/day
Rat [11]; [33]
  NEL: 12.5 mg/kg/day
Rat [11]; [34]
  LEL: 25 mg/kg/day
  LOAEL: > 25 mg/kg/day
  NOAEL: ≥ 25 mg/kg/day
Rat [12]; [30]
  NEL: 150 mg/kg/day
Rat [12]; [35]
  LEL: 200 mg/kg/day
  LOAEL: > 200 mg/kg/day
  NOAEL: ≥ 200 mg/kg/day
Rat [13]
  LEL: 100 mg/kg/day
  LOAEL: > 100 mg/kg/day
  NEL: 50 mg/kg/day
  NOAEL: ≥ 100 mg/kg/day
Rat [14]; [33]
  LEL: 100 mg/kg/day
  NEL: < 100 mg/kg/day
Rat [14]; [36]
  LOAEL: > 200 mg/kg/day
  NOAEL: ≥ 200 mg/kg/day

## OCCO [Ethylene glycol]
Mouse [15]
  LEL: 3750 mg/kg/day
  LOAEL: > 7500 mg/kg/day
  NEL: 1880 mg/kg/day
  NOAEL: ≥ 7500 mg/kg/day
Mouse [16]; [37]
  LOAEL: > 2000 mg/kg/day
  NOAEL: ≥ 2000 mg/kg/day
Mouse [16]; [38]
  LEL: 667 mg/kg/day
  NEL: < 667 mg/kg/day
Mouse [16]; [39]
  LOAEL: > 2000 mg/kg/day
  NOAEL: ≥ 2000 mg/kg/day
Mouse [16]; [40]
  LEL: 667 mg/kg/day
  NEL: < 667 mg/kg/day
Mouse [16]; [41]
  LEL: 1330 mg/kg/day
  NEL: 667 mg/kg/day
Mouse [16]; [42]
  LOAEL: > 2000 mg/kg/day
  NOAEL: ≥ 2000 mg/kg/day
rabbit
  LEL: 2000 mg/kg/day
  LOAEL: > 2000 mg/kg/day
  NEL: 1000 mg/kg/day
  NOAEL: ≥ 2000 mg/kg/day
Rat [17]; [43]
  LOAEL: > 2250 mg/kg/day
  NEL: 250 mg/kg/day
  NOAEL: ≥ 2250 mg/kg/day
Rat [17]; group: developmental, developmental / developmental malformation / kidney / size + systemic / in life observation / body weight / fetal weight
  LEL: 1250 mg/kg/day
Rat [17]; [44]
  LEL: 1250 mg/kg/day
  LOAEL: > 2250 mg/kg/day
  NEL: 250 mg/kg/day
  NOAEL: ≥ 2250 mg/kg/day
Mouse [18]; [45]
  LEL: 1330 mg/kg/day
  LOAEL: > 1330 mg/kg/day
  NEL: 667 mg/kg/day
  NOAEL: ≥ 1330 mg/kg/day
Mouse [18]; [46]
  LEL: 667 mg/kg/day
  LOAEL: > 1330 mg/kg/day
  NEL: 333 mg/kg/day
  NOAEL: ≥ 1330 mg/kg/day
Mouse [18]; group: reproductive, reproductive / reproductive performance / fertility / fertility
  NEL: 667 mg/kg/day
Mouse [18]; [47]
  LEL: 1330 mg/kg/day
  LOAEL: > 1330 mg/kg/day
  NOAEL: ≥ 1330 mg/kg/day
Mouse [19]; [48]
  LEL: 1500 mg/kg/day
  NEL: < 1500 mg/kg/day
Mouse [19]; [49]
  LOAEL: > 12000 mg/kg/day
  NOAEL: ≥ 12000 mg/kg/day
Rat [20]; [50]
  LOAEL: 1250 mg/kg/day
  NOAEL: 625 mg/kg/day
Rat [20]; [51]
  LEL: 160 mg/kg/day
  NEL: < 160 mg/kg/day
Rat [21]; [52]
  LEL: 2500 mg/kg/day
  LOAEL: > 2500 mg/kg/day
  NEL: < 2500 mg/kg/day
  NOAEL: ≥ 2500 mg/kg/day
Rat [21]; [53]
  LEL: 2500 mg/kg/day
  LOAEL: > 2500 mg/kg/day
  NEL: < 2500 mg/kg/day
  NOAEL: ≥ 2500 mg/kg/day

From EPA's ToxRefDB 2
